Data on 6 compounds can be found in patent publication US20240116985A1, “STAPLED PEPTIDES AND METHODS THEREOF” (priority 2020, published 2024).

Data set [1] has as its target T1, full-length B-Catenin (Uniprot ID P35222) (Homo sapiens, UniProt P35222).
T1 construct: 65 nM full-length B-Catenin (Uniprot ID P35222)
T1 sequence (P35222 1-781): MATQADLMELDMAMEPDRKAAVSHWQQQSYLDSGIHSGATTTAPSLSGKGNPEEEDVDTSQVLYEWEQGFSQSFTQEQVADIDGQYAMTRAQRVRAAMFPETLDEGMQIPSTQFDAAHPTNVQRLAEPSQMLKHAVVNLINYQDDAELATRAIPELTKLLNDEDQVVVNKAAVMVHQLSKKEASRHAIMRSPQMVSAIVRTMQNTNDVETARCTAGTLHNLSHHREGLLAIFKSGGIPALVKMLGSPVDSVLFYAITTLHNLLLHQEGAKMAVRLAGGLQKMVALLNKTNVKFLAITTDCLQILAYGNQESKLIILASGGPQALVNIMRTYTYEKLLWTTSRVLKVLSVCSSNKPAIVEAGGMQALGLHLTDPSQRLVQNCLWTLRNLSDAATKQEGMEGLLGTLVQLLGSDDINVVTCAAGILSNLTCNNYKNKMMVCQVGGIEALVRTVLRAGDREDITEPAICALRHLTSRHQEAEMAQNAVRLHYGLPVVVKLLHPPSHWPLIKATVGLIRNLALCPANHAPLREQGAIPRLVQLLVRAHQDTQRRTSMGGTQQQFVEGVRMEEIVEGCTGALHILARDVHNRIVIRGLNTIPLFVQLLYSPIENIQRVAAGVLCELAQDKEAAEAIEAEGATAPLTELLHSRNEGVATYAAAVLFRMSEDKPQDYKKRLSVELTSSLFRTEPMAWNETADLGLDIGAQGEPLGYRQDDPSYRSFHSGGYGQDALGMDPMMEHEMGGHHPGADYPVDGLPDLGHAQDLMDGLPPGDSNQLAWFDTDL
Put plainly: Alphascreen binding assay (beta-catenin / biotin-TCF4 10-53). The method, then: In some embodiments, an assay is an Alphascreen binding assay. A useful protocol is described below as an example.
Alphascreen binding assay: Using the AlphaScreen Histidine (Nickel Chelate) Detection Kit (PerkinElmer), peptide solutions were prepared in buffer (50 mM Tris pH 8.0, 250 mM NaCl, 2% glycerol, 0.03% Tween-20, 0.01% TritonX-100, 0.1% BSA w/v) using a 3-fold serial dilution from 10 uM to 5 nM. Probe solution (65 nM full-length B-Catenin (Uniprot ID P35222), mixed with 10 nM biotin labeled TCF4 residues 10-53 (Uniprot ID Q9NQB0) peptide in buffer) was prepared and 4 uL per well was plated in a white polystyrene 384-well plate (Corning). Equal volume of the titrated peptide was added to the plate and incubated for 15 minutes at 20° C. Then 4 uL of donor and 4 uL acceptor beads at 10 ug/mL were added to the plate, for a 16 uL reaction pool and protected from light for 60 minutes at 20° C. prior to read. Reads were performed on a CLARIOstar plate reader (BMG Labtech) in duplicate, and data were fitted to a 1:1 binding model with hill slope using an in-house script. All provided concentrations are final concentrations.

A further data set can be described thus: CHI Log D procedure. Format: physicochemical. As to conditions: for CHI Log D: pH 7.4.

Broadly, the EC50 is the concentration that produces a half-maximal response. `CC(=O)N[C@@H](Cc1ccccc1)C(=O)N[C@@H](CC(=O)O)C(=O)N[C@@H](C)C(=O)N[C@]1(C)CCCCCC=CCOC(=O)N2CC[C@@](C(=O)N[C@@H](Cc3ccccc3)C(=O)N[C@@H](Cc3c[nH]c4ccccc34)C(=O)N[C@@H](CCC(N)=O)C(N)=O)(C2)NC(=O)[C@H](C(C)C)NC(=O)[C@H](Cc2ccccc2)NC(=O)[C@H](C)NC(=O)[C@H](C)NC(=O)[C@H](CC(=O)O)NC(=O)[C@H](CC(=O)O)NC1=O` [I-30, Ac-Phe-Asp-Ala-R7-Asp-Asp-Ala-Ala-Phe-Val-PyrS-Phe-Trp-Gln-NH2] gave an EC50 in data set [1] of 8.82 µM. In addition, in the data set “CHI Log D procedure”, the “CHI Log D” value came out at 1.228.

In turn, `CC(=O)N[C@@H](Cc1ccccc1)C(=O)N[C@@H](CC(=O)O)C(=O)N[C@@H](C)C(=O)N[C@]1(C)CCCCCC=CCOC(=O)N2CC[C@@](C(=O)N[C@@H](Cc3ccccc3)C(=O)N[C@@H](Cc3c[nH]c4ccccc34)C(=O)N[C@@H](CCC(N)=O)C(N)=O)(C2)NC(=O)[C@H](C(C)C)NC(=O)[C@H](Cc2ccccc2)NC(=O)[C@H](C)NC(=O)[C@H](C)NC(=O)[C@H](CC(=O)O)NC(=O)[C@H](CC(=O)O)NC1=O` [I-31, Ac-Phe-Asp-Ala-R7-Asp-Asp-Ala-Ala-Phe-Val-PyrS-Phe-Trp-Gln-NH2] came in with an EC50 in data set [1] of 7.22 µM. The “CHI Log D” value in “CHI Log D procedure” was 1.245.

The chromatographic logD is a lipophilicity value derived from retention on a column. Regarding `CC(=O)N[C@@H](Cc1ccccc1)C(=O)N[C@@H](CC(=O)O)C(=O)N[C@@H](C)C(=O)NC12CN(C1)C(=O)OCC=CCCCCCC[C@@](C)(C(=O)N[C@@H](Cc1ccccc1)C(=O)N[C@@H](Cc1c[nH]c3ccccc13)C(=O)N[C@@H](CCC(N)=O)C(N)=O)NC(=O)[C@H](C(C)C)NC(=O)[C@H](Cc1ccccc1)NC(=O)[C@H](C)NC(=O)[C@H](C)NC(=O)[C@H](CC(=O)O)NC(=O)[C@H](CC(=O)O)NC2=O` [I-35, Ac-Phe-Asp-Ala-Az-Asp-Asp-Ala-Ala-Phe-Val-S8-Phe-Trp-Gln-NH2], the EC50 in data set [1] was 9.54 µM. The chromatographic logD in “CHI Log D procedure” (pH 7.4, CHI Log D) is 1.33.

Consider `CC(=O)N1CCC[C@]12CC=CCCCC1(CCCC=CCOC(=O)N(C)CCC[C@@](C)(C(=O)N[C@@H](Cc3ccccc3)C(=O)N[C@@H](Cc3c[nH]c4ccccc34)C(=O)N[C@@H](CCC(N)=O)C(N)=O)NC(=O)[C@H](C(C)C)NC(=O)[C@H](Cc3ccccc3)NC(=O)[C@H](C)NC(=O)[C@H](C)NC(=O)[C@H](CC(=O)O)NC(=O)[C@H](CC(=O)O)NC1=O)NC(=O)[C@H](C)NC(=O)[C@H](CC(=O)O)NC2=O` (stereo partly drawn) [I-53, Ac-PL3-Asp-Ala-B5-Asp-Asp-Ala-Ala-Phe-Val-SeN-Phe-Trp-Gln-NH2], for which the EC50 in data set [1] amounted to 1.14 µM. The “CHI Log D” value in the data set “CHI Log D procedure” is recorded as 1.307.

As for `CC(=O)N[C@@H](Cc1ccccc1)C(=O)N[C@@H](CC(=O)O)C(=O)N[C@@H](C)C(=O)N[C@]1(C)CCCCCCC=CCOC(=O)N2CC[C@@](C(=O)N[C@@H](CC3CCCCC3)C(=O)N[C@@H](Cc3c[nH]c4ccccc34)C(=O)N[C@@H](CCC(N)=O)C(N)=O)(C2)NC(=O)[C@H](C(C)C)NC(=O)[C@H](Cc2ccccc2)NC(=O)[C@H](C)NC(=O)[C@H](C)NC(=O)[C@H](CC(=O)O)NC(=O)[C@H](CC(=O)O)NC1=O` [I-61, Ac-Phe-Asp-Ala-R8-Asp-Asp-Ala-Ala-Phe-Val-PyrS-Cha-Trp-Gln-NH2], a half-maximal effect in data set [1] (EC50) was put at 8.9 µM. Also, the “CHI Log D” value in the data set “CHI Log D procedure” was found to be 1.446.

As to `CC[C@H](C)[C@H](NC(=O)[C@H](CC(=O)O)NC(=O)[C@H](C)NC(C)=O)C(=O)N[C@]1(C)CCN(C)C(=O)OCC=CCCCCC[C@@](C)(C(=O)N[C@@H](Cc2ccccc2)C(=O)N[C@@H](Cc2c[nH]c3ccccc23)C(=O)N[C@@H](Cc2c[nH]cn2)C(N)=O)NC(=O)[C@H](CCC(N)=O)NC(=O)[C@H](Cc2ccccc2)NC(=O)[C@H](C)NC(=O)[C@H](C)NC(=O)[C@H](CC(=O)O)NC(=O)[C@H](CC(=O)O)NC1=O` [I-65, Ac-Ala-Asp-Ile-RdN-Asp-Asp-Ala-Ala-Phe-Gln-S7-Phe-Trp-His-NH2], in data set [1], the response was half-maximal at 2.08 µM (EC50). Further, the “CHI Log D” value in the data set “CHI Log D procedure” is listed as 1.274.
